We go through 24 compounds from patent US10689377B2 (Mirati Therapeutics, Inc., priority 2017, dated 2020).

Structures can show the parent of a compound that is named as a salt.

Chain of KRas G12C (P01116 1-188 isoform P01116-2 G12C): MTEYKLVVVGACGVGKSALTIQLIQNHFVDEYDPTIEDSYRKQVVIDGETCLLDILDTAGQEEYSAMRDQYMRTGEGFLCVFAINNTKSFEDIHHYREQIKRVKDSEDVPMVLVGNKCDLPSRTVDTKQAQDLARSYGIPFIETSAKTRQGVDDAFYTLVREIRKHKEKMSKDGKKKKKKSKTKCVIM

The assay has as its target KRas G12C (Homo sapiens, UniProt P01116, G12C). Briefly: Cellular inhibition of KRas G12C measured by Phospho-ERK in NCI-H358 cells. In kind it is cell-based. The note with it: pERK(Thr202/Tyr204) normalized with GAPDH, NCI-H358 cells, 3 hours; read-out: IC50. Summed up:
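Readout is pERK(Thr202/Tyr204) immunofluorescence normalized to GAPDH, expressed as percent of DMSO control and fitted with a 4-parameter curve for IC50. Attached NCI-H358 cells received compound for 3 hours in 0.5% DMSO, followed by fixation and methanol permeabilization.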
One may read the IC50 as the midpoint of a concentration-inhibition curve. In the case of `C=CC(=O)N1CCN(c2nc(OC[C@@H]3CCCN3C)nc3c2CCN(c2ccc(F)cc2C(F)(F)F)C3)CC1CC#N` (stereo partly drawn) [Example 413, 2-(1-acryloyl-4-(7-(4-fluoro-2-(trifluoromethyl)phenyl)-2-(((S)-1-methylpyrrolidin-2-yl)methoxy)-5,6,7,8-tetrahydropyrido[3,4-d]pyrimidin-4-yl)piperazin-2-yl)acetonitrile], the half-maximal inhibitory concentration (IC50) is 0.1 to 1000 nM.

`C=CC(=O)N1CCN(c2nc(OC[C@@H]3CCCN3C)nc3c2CCN(c2cccc(F)c2C(F)(F)F)C3)CC1CC#N` (stereo partly drawn) [Example 230]: the 50% inhibitory concentration (IC50) was 0.1 to 1000 nM.

On to `C=CC(=O)N1CCN(c2nc(OC[C@@H]3C[C@H](O)CN3C)nc3c2CCN(c2cccc4ccccc24)C3)CC1CC#N` (stereo partly drawn) [Example 419, 2-(1-acryloyl-4-(2-(((2S,4S)-4-hydroxy-1-methylpyrrolidin-2-yl)methoxy)-7-(naphthalen-1-yl)-5,6,7,8-tetrahydropyrido[3,4-d]pyrimidin-4-yl)piperazin-2-yl)acetonitrile], for which the half-maximal inhibitory concentration (IC50) lay within 0.1 to 1000 nM.

Regarding `C=CC(=O)N1CCN(c2nc(OC[C@@H]3CCCN3C)nc3c2CCN(c2c(C)c(C)cc4[nH]ncc24)C3)CC1` [Example 453, 1-[4-[7-(5,6-dimethyl-1H-indazol-4-yl)-2-[[(2S)-1-methylpyrrolidin-2-yl]methoxy]-6,8-dihydro-5H-pyrido[3,4-d]pyrimidin-4-yl]piperazin-1-yl]prop-2-en-1-one], the IC50 is 0.1 to 1000 nM.

Consider `C=C(CO)C(=O)N1CCN(c2nc(OC[C@@H]3CCCN3C)nc3c2CCN(c2cccc(C)c2C)C3)C[C@@H]1CC#N` [Example 488, 2-((S)-4-(7-(2,3-dimethylphenyl)-2-(((S)-1-methylpyrrolidin-2-yl)methoxy)-5,6,7,8-tetrahydropyrido[3,4-d]pyrimidin-4-yl)-1-(2-(hydroxymethyl)acryloyl)piperazin-2-yl)acetonitrile], for which the IC50 was more than 1000 nM.

Take `C=CC(=O)N1CCN(c2nc(O[C@H](C)CN(C)C)nc3c2CCN(c2cc(O)c(F)c4ccccc24)C3)CC1` [Example 124, (R)-1-(4-(2-((1-(dimethylamino)propan-2-yl)oxy)-7-(4-fluoro-3-hydroxynaphthalen-1-yl)-5,6,7,8-tetrahydropyrido[3,4-d]pyrimidin-4-yl)piperazin-1-yl)prop-2-en-1-one]: the IC50 is more than 1000 nM.

Regarding `C=CC(=O)N1CCN(c2nc(OCCN(C)C)nc3c2CC(C)N(c2cc(O)cc4ccccc24)C3)CC1` (stereo not drawn) [Example 48, 1-(4-(2-(2-(dimethylamino)ethoxy)-7-(3-hydroxynaphthalen-1-yl)-6-methyl-5,6,7,8-tetrahydropyrido[3,4-d]pyrimidin-4-yl)piperazin-1-yl)prop-2-en-1-one trifluoroacetate], the IC50 was more than 1000 nM.

In the case of `C=CC(=O)N1CCN(c2nc(OCCN3CCCC(F)(F)C3)nc3c2CCN(c2cccc4cccc(Cl)c24)C3)C[C@@H]1CC#N` [Example 455, 2-[(2S)-4-[7-(8-chloro-1-naphthyl)-2-[2-(3,3-difluoro-1-piperidyl)ethoxy]-6,8-dihydro-5H-pyrido[3,4-d]pyrimidin-4-yl]-1-prop-2-enoyl-piperazin-2-yl]acetonitrile], the IC50 was in the range of 0.1 to 1000 nM.

For the compound `C=CC(=O)N1CCN(c2nc(OC[C@@H]3CCCN3C)nc3c2CCN(c2cccc4cnccc24)C3)CC1CC#N` (stereo partly drawn) [Example 262, 2-[4-[7-(5-isoquinolyl)-2-[[(2S)-1-methylpyrrolidin-2-yl]methoxy]-6,8-dihydro-5H-pyrido[3,4-d]pyrimidin-4-yl]-1-prop-2-enoyl-piperazin-2-yl]acetonitrile], the IC50 was more than 1000 nM.

As to `C=C(F)C(=O)N1CCN(c2nc(OC[C@H]3C[C@@H](F)CN3C)nc3c2CCN(c2cccc4cccc(C)c24)C3)C[C@@H]1CC#N` [Example 518, 2-[(2S)-4-[2-[[(2R,4R)-4-fluoro-1-methyl-pyrrolidin-2-yl]methoxy]-7-(8-methyl-1-naphthyl)-6,8-dihydro-5H-pyrido[3,4-d]pyrimidin-4-yl]-1-(2-fluoroprop-2-enoyl)piperazin-2-yl]acetonitrile], the IC50 fell in the range of 0.1 to 1000 nM.

On to `C=CC(=O)N1CCN(c2nc(OC[C@@H]3C[C@@H](OC)CN3C)nc3c2CCN(c2cccc(Cl)c2C(F)(F)F)C3)C[C@@H]1CC#N` [Example 332, 2-[(2S)-4-[7-[3-chloro-2-(trifluoromethyl)phenyl]-2-[[(2S,4R)-4-methoxy-1-methyl-pyrrolidin-2-yl]methoxy]-6,8-dihydro-5H-pyrido[3,4-d]pyrimidin-4-yl]-1-prop-2-enoyl-piperazin-2-yl]acetonitrile], for which the IC50 was in the range of 0.1 to 1000 nM.

On to `C=CC(=O)N1CCN(c2nc(OC[C@@H]3CN(C)CCN3)nc3c2CCN(c2cccc4ccccc24)C3)CC1CC#N` (stereo partly drawn) [Example 223, 2-(1-acryloyl-4-(2-(((S)-4-methylpiperazin-2-yl)methoxy)-7-(naphthalen-1-yl)-5,6,7,8-tetrahydropyrido[3,4-d]pyrimidin-4-yl)piperazin-2-yl)acetonitrile], for which the concentration for half-maximal inhibition (IC50) is 0.1 to 1000 nM.

On to `C=CC(=O)N1CCN(c2nc(OC[C@@H]3C[C@@H](O)CN3C)nc3c2CCN(c2ccccc2C(F)(F)F)C3)CC1CC#N` (stereo partly drawn) [Example 312, 2-[4-[2-[[(2S,4R)-4-hydroxy-1-methyl-pyrrolidin-2-yl]methoxy]-7-[2-(trifluoromethyl)phenyl]-6,8-dihydro-5H-pyrido[3,4-d]pyrimidin-4-yl]-1-prop-2-enoyl-piperazin-2-yl]acetonitrile], for which the IC50 lay within 0.1 to 1000 nM.

For the compound `C=CC(=O)N1[C@@H]2CC[C@H]1CN(c1nc(OC(C)CN(C)C)nc3c1CCN(c1cc(O)cc4ccccc14)C3)C2` (stereo partly drawn) [Example 45, 1-((1R,5S)-3-(2-((1-(dimethylamino)propan-2-yl)oxy)-7-(3-hydroxynaphthalen-1-yl)-5,6,7,8-tetrahydropyrido[3,4-d]pyrimidin-4-yl)-3,8-diazabicyclo[3.2.1]octan-8-yl)prop-2-en-1-one], the IC50 is more than 1000 nM.

`C[C@H](CN(C)C)Oc1nc2c(c(N3CCN(C(=O)/C=C/CN(C)C)CC3)n1)CCN(c1cc(O)cc3ccccc13)C2` [Example 122, (R,E)-4-(dimethylamino)-1-(4-(2-((1-(dimethylamino)propan-2-yl)oxy)-7-(3-hydroxynaphthalen-1-yl)-5,6,7,8-tetrahydropyrido[3,4-d]pyrimidin-4-yl)piperazin-1-yl)but-2-en-1-one bis-trifluoroacetate]: the half-inhibitory concentration (IC50) is more than 1000 nM.

As to `C=CC(=O)N1CCN(c2nc(OC[C@@H]3CCCN3C)nc3c2CCN(c2c(F)cccc2C(F)(F)F)C3)CC1CC#N` (stereo partly drawn) [Example 275], the concentration for half-maximal inhibition (IC50) fell in the range of 0.1 to 1000 nM.

As for `C=CC(=O)N1CCN(c2nc(OCCN3CCCCC3)nc3c2CCN(c2cccc4cccc(Cl)c24)C3)C[C@@H]1CC#N` [Example 362, 2-[(2S)-4-[7-(8-chloro-1-naphthyl)-2-[2-(1-piperidyl)ethoxy]-6,8-dihydro-5H-pyrido[3,4-d]pyrimidin-4-yl]-1-prop-2-enoyl-piperazin-2-yl]acetonitrile], the half-maximal inhibitory concentration (IC50) lay within 0.1 to 1000 nM.

Turning to `C=C(F)C(=O)N1CCN(c2ncnc3c2CCN(c2cncc4cccc(Cl)c24)C3)C[C@@H]1CC#N` [Example 612, (S)-2-(4-(7-(5-chloroisoquinolin-4-yl)-5,6,7,8-tetrahydropyrido[3,4-d]pyrimidin-4-yl)-1-(2-fluoroacryloyl)piperazin-2-yl)acetonitrile], the IC50 is more than 1000 nM.

On to `CC#CC(=O)N1CCN(c2nc(OC[C@@H]3CCCN3C)nc3c2CCN(c2cccc4cccc(C)c24)C3)C[C@@H]1CC#N` [Example 458, 2-((S)-1-(but-2-ynoyl)-4-(7-(8-methylnaphthalen-1-yl)-2-(((S)-1-methylpyrrolidin-2-yl)methoxy)-5,6,7,8-tetrahydropyrido[3,4-d]pyrimidin-4-yl)piperazin-2-yl)acetonitrile], for which the IC50 lay in the range of 0.1 to 1000 nM.

Consider `C=CC(=O)N1CCN(c2nc(OC[C@@H]3CCCN3C)nc3c2CCN(c2cccc4ncccc24)C3)CC1CC#N` (stereo partly drawn) [Example 264, 2-[4-[2-[[(2S)-1-methylpyrrolidin-2-yl]methoxy]-7-(5-quinolyl)-6,8-dihydro-5H-pyrido[3,4-d]pyrimidin-4-yl]-1-prop-2-enoyl-piperazin-2-yl]acetonitrile], for which the half-maximal inhibitory concentration (IC50) is more than 1000 nM.

Consider `C=CC(=O)N1CCN(c2nc(OCCN3CCCCC3)nc3c2CCN(c2cccc4ccccc24)C3)CC1CC#N` (stereo not drawn) [Example 303, 2-[4-[7-(1-naphthyl)-2-[2-(1-piperidyl)ethoxy]-6,8-dihydro-5H-pyrido[3,4-d]pyrimidin-4-yl]-1-prop-2-enoyl-piperazin-2-yl]acetonitrile], for which the 50% inhibitory concentration (IC50) was in the range of 0.1 to 1000 nM.

For the compound `C=C(F)C(=O)N1CCN(c2nc(OC[C@@H]3CCC(=O)N3C)nc3c2CCN(c2cccc4cccc(C)c24)C3)C[C@@H]1CC#N` [Example 569, 2-[(2S)-1-(2-Fluoroprop-2-enoyl)-4-[7-(8-methyl-1-naphthyl)-2-[[(2S)-1-methyl-5-oxo-pyrrolidin-2-yl]methoxy]-6,8-dihydro-5H-pyrido[3,4-d]pyrimidin-4-yl]piperazin-2-yl]acetonitrile], the 50% inhibitory concentration (IC50) was more than 1000 nM.

As for `C=CC(=O)N1CCN(c2nc(OC[C@@H]3CCCN3C)nc3c2CCN(c2cccc(C)c2C)C3)CC1CC#N` (stereo partly drawn) [Example 228, 2-(1-acryloyl-4-(7-(2,3-dimethylphenyl)-2-(((S)-1-methylpyrrolidin-2-yl)methoxy)-5,6,7,8-tetrahydropyrido[3,4-d]pyrimidin-4-yl)piperazin-2-yl)acetonitrile], the 50% inhibitory concentration (IC50) was 0.1 to 1000 nM.

Regarding `C=CC(=O)N1CCN(c2nc(OCCN(C)C)nc3c2CCN(c2cc(O)cc4ccccc24)C3)C[C@@H]1CC#N` [Example 176, 2-[(2S)-4-[2-[2-(dimethylamino)ethoxy]-7-(3-hydroxy-1-naphthyl)-6,8-dihydro-5H-pyrido[3,4-d]pyrimidin-4-yl]-1-prop-2-enoyl-piperazin-2-yl] acetonitrile], the concentration for half-maximal inhibition (IC50) is 0.1 to 1000 nM.
